How the values were obtained:
[1] = target: Substance-P receptor (Homo sapiens, UniProt P25103); assay: Binding affinity against recombinant human tachykinin receptor 1 in CHO cells using [3H]-Sar SP as a radioligand; assay type: cell-based
[2] = target: T1, Substance-K receptor (Homo sapiens, UniProt P21452); assay: Binding affinity against recombinant human tachykinin receptor 2 in CHO cells using [3H]NKA as a radioligand; assay type: cell-based
T1 sequence (P21452 whole entry): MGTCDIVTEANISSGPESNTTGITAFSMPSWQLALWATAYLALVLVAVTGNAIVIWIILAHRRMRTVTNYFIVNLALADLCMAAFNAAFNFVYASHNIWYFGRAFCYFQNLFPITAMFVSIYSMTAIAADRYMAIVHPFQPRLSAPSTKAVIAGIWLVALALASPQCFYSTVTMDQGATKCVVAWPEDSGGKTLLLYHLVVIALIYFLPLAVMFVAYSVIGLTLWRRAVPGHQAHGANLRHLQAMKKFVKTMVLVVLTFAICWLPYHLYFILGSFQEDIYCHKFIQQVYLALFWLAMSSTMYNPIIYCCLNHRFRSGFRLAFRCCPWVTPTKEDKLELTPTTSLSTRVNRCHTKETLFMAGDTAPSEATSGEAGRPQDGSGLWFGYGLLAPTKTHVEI

Chain of Substance-P receptor (P25103 whole entry): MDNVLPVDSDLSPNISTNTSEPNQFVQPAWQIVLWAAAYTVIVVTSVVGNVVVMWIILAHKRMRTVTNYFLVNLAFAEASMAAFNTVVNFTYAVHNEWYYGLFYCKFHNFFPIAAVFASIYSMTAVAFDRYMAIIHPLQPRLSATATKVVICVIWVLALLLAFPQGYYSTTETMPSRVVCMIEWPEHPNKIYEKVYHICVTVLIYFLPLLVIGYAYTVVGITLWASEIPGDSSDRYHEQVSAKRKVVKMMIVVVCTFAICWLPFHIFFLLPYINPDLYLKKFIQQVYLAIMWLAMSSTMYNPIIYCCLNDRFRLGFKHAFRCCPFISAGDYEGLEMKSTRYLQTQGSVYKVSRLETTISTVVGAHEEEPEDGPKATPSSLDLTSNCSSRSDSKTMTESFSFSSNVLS

Compound	Ki [1]	Ki [2]
N=C(CO/N=C(\COCc1cc(C(F)(F)F)cc(C(F)(F)F)c1)C(CCN1CCC(O)(c2ccccc2)CC1)c1ccc(Cl)c(Cl)c1)NO (centres undefined)	17 nM	19 nM
CSCCCO/N=C(\CN(C)C(=O)c1cc(Cl)cc(Cl)c1)C(CCN1CCC(N2CCCCC2=O)CC1)c1ccc(Cl)c(Cl)c1 (centres undefined)	7.4 nM	11.5 nM
CN(C)/N=C(\COCc1cc(C(F)(F)F)cc(C(F)(F)F)c1)C(CCN1CCC(O)(c2ccccc2)CC1)c1ccc(Cl)c(Cl)c1 (centres undefined)	38 nM	24 nM
CN(C/C(=N\OCc1c[nH]cn1)C(CCN1CCC(N2CCCCC2=O)CC1)c1ccc(Cl)c(Cl)c1)C(=O)c1cc(Cl)cc(Cl)c1 (centres undefined)	2.2 nM	8.5 nM
COCCNC(=O)CO/N=C(\CN(C)C(=O)c1cc(Cl)cc(Cl)c1)C(CCN1CCC(N2CCCCC2=O)CC1)c1ccc(Cl)c(Cl)c1 (centres undefined)	2.2 nM	48 nM
OCCO/N=C(\COCc1cc(C(F)(F)F)cc(C(F)(F)F)c1)C(CCN1CCC(O)(c2ccccc2)CC1)c1ccc(Cl)c(Cl)c1 (centres undefined)	20 nM	14 nM
CN(C/C(=N\OCC(C)(C)O)C(CCN1CCC(N2CCCCC2=O)CC1)c1ccc(Cl)c(Cl)c1)C(=O)c1cc(Cl)cc(Cl)c1 (centres undefined)	1.9 nM	23 nM
COC(=O)CO/N=C(\CN(C)C(=O)c1cc(Cl)cc(Cl)c1)C(CCN1CCC(N2CCCCC2=O)CC1)c1ccc(Cl)c(Cl)c1 (centres undefined)	4.7 nM	16.7 nM
COCCO/N=C(\COCc1cc(C(F)(F)F)cc(C(F)(F)F)c1)C(CCN1CCC(O)(c2ccccc2)CC1)c1ccc(Cl)c(Cl)c1 (centres undefined)	7 nM	50 nM
COC(=O)CO/N=C(\COCc1cc(C(F)(F)F)cc(C(F)(F)F)c1)C(CCN1CCC(O)(c2ccccc2)CC1)c1ccc(Cl)c(Cl)c1 (centres undefined)	25 nM	198 nM
COCCO/N=C(\CN(C)C(=O)c1cc(Cl)cc(Cl)c1)C(CCN1CCC(N2CCCCC2=O)CC1)c1ccc(Cl)c(Cl)c1 (centres undefined)	2.4 nM	3.1 nM
O=C(COCc1cc(C(F)(F)F)cc(C(F)(F)F)c1)C(CCN1CCC(O)(c2ccccc2)CC1)c1ccc(Cl)c(Cl)c1 (centres undefined)	15 nM	236 nM
CCO/N=C(\COCc1cc(C(F)(F)F)cc(C(F)(F)F)c1)C(CCN1CCC(O)(c2ccccc2)CC1)c1ccc(Cl)c(Cl)c1 (centres undefined)	81 nM	107 nM
N#CO/N=C(\COCc1cc(C(F)(F)F)cc(C(F)(F)F)c1)C(CCN1CCC(O)(c2ccccc2)CC1)c1ccc(Cl)c(Cl)c1 (centres undefined)	15 nM	19 nM
CN(C/C(=N\OCCC[N+](C)(C)C)C(CCN1CCC(N2CCCCC2=O)CC1)c1ccc(Cl)c(Cl)c1)C(=O)c1cc(Cl)cc(Cl)c1 (centres undefined)	1.8 nM	590 nM
CONC(COCc1cc(C(F)(F)F)cc(C(F)(F)F)c1)C(CCN1CCC(O)(c2ccccc2)CC1)c1ccc(Cl)c(Cl)c1 (centres undefined)	25 nM	350 nM
CNC(=O)CO/N=C(\COCc1cc(C(F)(F)F)cc(C(F)(F)F)c1)C(CCN1CCC(O)(c2ccccc2)CC1)c1ccc(Cl)c(Cl)c1 (centres undefined)	24 nM	45 nM
C=CCO/N=C(\COCc1cc(C(F)(F)F)cc(C(F)(F)F)c1)C(CCN1CCC(O)(c2ccccc2)CC1)c1ccc(Cl)c(Cl)c1 (centres undefined)	100 nM	215 nM
NC(=O)CO/N=C(\COCc1cc(C(F)(F)F)cc(C(F)(F)F)c1)C(CCN1CCC(O)(c2ccccc2)CC1)c1ccc(Cl)c(Cl)c1 (centres undefined)	17 nM	58 nM
CO/N=C(\CN(C)C(=O)c1cc(Cl)cc(Cl)c1)C(CCN1CCC(N2CCCCC2=O)CC1)c1ccc(Cl)c(Cl)c1 (centres undefined)	4.7 nM	1.6 nM
COCO/N=C(\COCc1cc(C(F)(F)F)cc(C(F)(F)F)c1)C(CCN1CCC(O)(c2ccccc2)CC1)c1ccc(Cl)c(Cl)c1 (centres undefined)	49 nM	42 nM
CN(C/C(=N\OCCn1ccnc1)C(CCN1CCC(N2CCCCC2=O)CC1)c1ccc(Cl)c(Cl)c1)C(=O)c1cc(Cl)cc(Cl)c1 (centres undefined)	2.8 nM	5.4 nM
CN(C/C(=N\OCCCS(=O)(=O)O)C(CCN1CCC(N2CCCCC2=O)CC1)c1ccc(Cl)c(Cl)c1)C(=O)c1cc(Cl)cc(Cl)c1 (centres undefined)	3.3 nM	2.7 nM

Stronger by Ki [1], values ahead:

Ki [1]	Ki [2]	Compound
1.7 nM	25 nM	CN(C/C(=N\OCCCn1cccn1)C(CCN1CCC(N2CCCCC2=O)CC1)c1ccc(Cl)c(Cl)c1)C(=O)c1cc(Cl)cc(Cl)c1 (centres undefined)
1.7 nM	5 nM	CN(C/C(=N\OC(F)F)C(CCN1CCC(N2CCCCC2=O)CC1)c1ccc(Cl)c(Cl)c1)C(=O)c1cc(Cl)cc(Cl)c1 (centres undefined)
1.6 nM	6.8 nM	CN(C/C(=N\OCCCn1ccnc1)C(CCN1CCC(N2CCCCC2=O)CC1)c1ccc(Cl)c(Cl)c1)C(=O)c1cc(Cl)cc(Cl)c1 (centres undefined)
1.5 nM	1.4 nM	CN(C/C(=N\OCC#N)C(CCN1CCC(N2CCCCC2=O)CC1)c1ccc(Cl)c(Cl)c1)C(=O)c1cc(Cl)cc(Cl)c1 (centres undefined)
1.2 nM	4.2 nM	CN(C/C(=N\OCC(=O)NO)C(CCN1CCC(N2CCCCC2=O)CC1)c1ccc(Cl)c(Cl)c1)C(=O)c1cc(Cl)cc(Cl)c1 (centres undefined)
1.2 nM	4.5 nM	CN(C/C(=N\OCCCNS(C)(=O)=O)C(CCN1CCC(N2CCCCC2=O)CC1)c1ccc(Cl)c(Cl)c1)C(=O)c1cc(Cl)cc(Cl)c1 (centres undefined)
1 nM	1.7 nM	CNC(=O)NCCCO/N=C(\CN(C)C(=O)c1cc(Cl)cc(Cl)c1)C(CCN1CCC(N2CCCCC2=O)CC1)c1ccc(Cl)c(Cl)c1 (centres undefined)
0.9 nM	3.2 nM	CN(C/C(=N\OCCCS(C)(=O)=O)C(CCN1CCC(N2CCCCC2=O)CC1)c1ccc(Cl)c(Cl)c1)C(=O)c1cc(Cl)cc(Cl)c1 (centres undefined)
0.9 nM	2 nM	CN(C/C(=N\OCC(N)=O)C(CCN1CCC(N2CCCCC2=O)CC1)c1ccc(Cl)c(Cl)c1)C(=O)c1cc(Cl)cc(Cl)c1 (centres undefined)
0.8 nM	3.5 nM	CN(C/C(=N\OCCC[S+](C)[O-])C(CCN1CCC(N2CCCCC2=O)CC1)c1ccc(Cl)c(Cl)c1)C(=O)c1cc(Cl)cc(Cl)c1 (centres undefined)
0.8 nM	0.8 nM	CN(C/C(=N\OCF)C(CCN1CCC(N2CCCCC2=O)CC1)c1ccc(Cl)c(Cl)c1)C(=O)c1cc(Cl)cc(Cl)c1 (centres undefined)
0.8 nM	17 nM	CN(C/C(=N\OCCCn1cnnn1)C(CCN1CCC(N2CCCCC2=O)CC1)c1ccc(Cl)c(Cl)c1)C(=O)c1cc(Cl)cc(Cl)c1 (centres undefined)
0.7 nM	8.8 nM	CN(C/C(=N\OCCCN)C(CCN1CCC(N2CCCCC2=O)CC1)c1ccc(Cl)c(Cl)c1)C(=O)c1cc(Cl)cc(Cl)c1 (centres undefined)
0.7 nM	4.8 nM	CN(C/C(=N\OCCCn1cncn1)C(CCN1CCC(N2CCCCC2=O)CC1)c1ccc(Cl)c(Cl)c1)C(=O)c1cc(Cl)cc(Cl)c1 (centres undefined)
0.7 nM	394 nM	CN(C/C(=N\OCC(=O)O)C(CCN1CCC(N2CCCCC2=O)CC1)c1ccc(Cl)c(Cl)c1)C(=O)c1cc(Cl)cc(Cl)c1 (centres undefined)
0.7 nM	1.5 nM	CN(C/C(=N\OCCCO)C(CCN1CCC(N2CCCCC2=O)CC1)c1ccc(Cl)c(Cl)c1)C(=O)c1cc(Cl)cc(Cl)c1 (centres undefined)
0.6 nM	0.8 nM	CN(C/C(=N\OCCO)C(CCN1CCC(N2CCCCC2=O)CC1)c1ccc(Cl)c(Cl)c1)C(=O)c1cc(Cl)cc(Cl)c1 (centres undefined)
0.5 nM	50 nM	CN(C/C(=N\OCCN1CCNCC1)C(CCN1CCC(N2CCCCC2=O)CC1)c1ccc(Cl)c(Cl)c1)C(=O)c1cc(Cl)cc(Cl)c1 (centres undefined)
0.4 nM	0.5 nM	CN(C/C(=N\OCC(=N)NO)[C@H](CCN1CCC(N2CCCCC2=O)CC1)c1ccc(Cl)c(Cl)c1)C(=O)c1cc(Cl)cc(Cl)c1

Reference: ChEMBL document CHEMBL1135235, “Structure-activity relationships of oxime neurokinin antagonists: oxime modifications” (Bioorg Med Chem Lett, 2002)
